Experimental data taken from US5330992A, “1-cyclopropyl-4-pyridyl-quinolinones” (priority 1992, dated 1994).

Legend:
[1] = In vivo antitumor assay, Mam16C(sc); set-up: species or system mouse; details: mouse, in vivo, drug route iv, qd 1, bid 2,3
Text: (§1) Mice: Inbred: C3H/He and NCR-nu; and Hybrids: B6D2Fl (C57BL/6 females X DBA/2 males, CD2Fl (Balb/c females X DBS/2 males) and B6x C3fl (C57BL/6 x C3H) were bred at Wayne State University from strained obtained from the Frederick Cancer Research Facility, Frederick, Md. or purchased from commercial suppliers.
(§2) Tumors: Murine Tumor: P388 and an adriamycin-resistant (ADR) subline P388/ADR leukemia and the following transplantable solid tumors of mice were used for in Vivo testing: B16 melanoma (B16), pancreatic ductal adenocarcinoma No. 03 (Panc 03), colon adenocarcinoma No. 38 (colo 38), mammary ductal adenocarcinoma No. 16/C (Mam16) and an adriamycin-resistantsubline Mam16C/ADR. Human tumor: A single human tumor, mammary carcinoma MX-1 (MX1) was used for in vivo testing. All tumors are in the Developmental Therapeutics Program frozen tumor respository, maintained by the Biological Testing Branch, Frederick Md. Each has a detailed description, code identification number, and list of references at the National Tumor Repository. […]
(§3) Quantitative end points used assess antitumor activity included % Increased Life Span (% ILS), Tumor Cell Kill (Log10 kill), and Tumor Growth Inhibition (T/C). […]
(§4) The log10 cell kill was calculated from the following formula: [formula] where T-C is the tumor difference in the median day of death between the treated (T) and the control (C) groups and Td is the tumor doubling time (in days), the latter estimated from the best fit straight line from a log-linear growth plot of the control-group tumors in exponential growth. […]
(§5) Tumors were measured with a caliper once or twice weekly (as needed) until either tumors exceeded 1600 mg or cure was assured. […] When the control group tumors reached approximately 750-1500 mg in size (median of group), the median tumor weight of each group was determined (including zeros). […] The % T/C was calculated from the following formula for solid murine tumor models: [formula] where T and C are median tumor weights of the treatment and control groups, respectively. […]

[2] = system: mammary ductal adenocarcinoma No. 16/C (Mam16); experiment: In vivo antitumor assay, Mam16C(sc); set-up: species or system mouse; details: drug route iv
Text: as §1, §2, §3, §4, §5

Cc1cc(-c2c(F)cc3c(=O)c(Cc4c(O)cccc4O)cn(C4CC4)c3c2F)cc(C)n1 [Example 26, 1-Cyclopropyl-6,8-difluoro-7-[2,6-dimethyl-4-pyridinyl]-3-[2,6-dihydroxyphenylmethyl]-1,4-dihydroquinoline-4-one]
MTD [1]: 15 mg/kg
T/C % ([2]; qd 1, bid 2,3): 28%
LOG KILL ([2]; qd 1, bid 2,3, log10 cell kill): 0.90
